Laboratory results taken from US4200575A, “7[(2-Thiazolyl)-2-(oxoimino)acetamido]cephalosporin derivatives” (Takeda Chemical Industries, Ltd., priority 1977, dated 1980).

Columns and labels:
E. coli 0-111 = assay: Minimal inhibitory concentration (M.I.C.), agar dilution method; assay type: cell-based, Escherichia coli; settings: TSA, inoculum 10^7 /ml
Summary of the method: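 MIC against E. coli O-111 was determined by agar dilution.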

E. cloacae TN 1282 = assay: as above; assay type: cell-based, Enterobacter cloacae; settings: TSA, inoculum 10^7 /ml
Excerpt: (§1) (a) Determination of minimal inhibitory concentrations (Tables 1 to 8):
(§2) Procedure: agar dilution method

S. aureus 209P = assay: as above; assay type: cell-based, Staphylococcus aureus; settings: TSA, inoculum 10^7 /ml
Excerpt: as §1, §2

S. aureus 1840 = assay: as above; assay type: cell-based, Staphylococcus aureus; settings: TSA, inoculum 10^7 /ml
Excerpt: as §1, §2

C. freundii GN 99 = assay: as above; assay type: cell-based, Citrobacter freundii; settings: TSA, inoculum 10^7 /ml
Excerpt: as §1, §2

C. freundii GN 1706 = assay: as above; assay type: cell-based, Citrobacter freundii; settings: TSA, inoculum 10^7 /ml
Excerpt: as §1, §2

E. coli T-7 = assay: as above; assay type: cell-based, Escherichia coli; settings: TSA, inoculum 10^7 /ml
Excerpt: as §1, §2

E. coli NIHJ JC-2 = assay: as above; assay type: cell-based, Escherichia coli; settings: TSA, inoculum 10^7 /ml
Excerpt: as §1, §2

P. rettgeri GN4733 = assay: as above; assay type: cell-based, Proteus rettgeri; settings: TSA, inoculum 10^7 /ml
Excerpt: as §1, §2

P. rettgeri TN 338 = assay: as above; assay type: cell-based, Proteus rettgeri; settings: TSA, inoculum 10^7 /ml
Excerpt: as §1, §2

P. morganii IFO 3168 = assay: as above; assay type: cell-based, Proteus morganii; settings: TSA, inoculum 10^7 /ml
Excerpt: as §1, §2

S. marcescens IFO 12648 = assay: as above; assay type: cell-based, Serratia marcescens; settings: TSA, inoculum 10^7 /ml
Excerpt: as §1, §2

S. marcescens TN 24 = assay: as above; assay type: cell-based, Serratia marcescens; settings: TSA, inoculum 10^7 /ml
Excerpt: as §1, §2

P. vulgaris IFO 3988 = assay: as above; assay type: cell-based, Proteus vulgaris; settings: TSA, inoculum 10^7 /ml
Excerpt: as §1, §2

P. vulgaris GN 4413 = assay: as above; assay type: cell-based, Proteus vulgaris; settings: TSA, inoculum 10^7 /ml
Excerpt: as §1, §2

Escherichia coli 0-111 = assay: Therapeutic effects in infected mice; assay type: in vivo, Male mice ICR/SLC; settings: Escherichia coli, 0111, sc, 168 h
Method: The preliminary therapeutic effects of some cephalosporin derivatives of this invention as determined in infected mice were as follows.
Determination of therapeutic effects in infected mice
Test animals: Male mice ICR/SLC
Each compound was administered to a group of 5 animals.
Route of infection: Intraperitoneally infected with Escherichia coli 0-111
Period of observation: 7 days.
Method of administration:
One mg of each test compound was dissolved in 100 ml of sterile physiological saline and a dilution series of the same solution was prepared. These solutions were respectively injected subcutaneously into mice immediately after infection, in a single dose of 0.2 ml each.

K. pneumoniae GN 3835 = assay: Minimal inhibitory concentration (M.I.C.), agar dilution method; assay type: cell-based, Klebsiella pneumoniae; settings: TSA, inoculum 10^7 /ml
Excerpt: as §1, §2

K. pneumoniae DT = assay: as above; assay type: cell-based, Klebsiella pneumoniae; settings: TSA, inoculum 10^7 /ml
Excerpt: as §1, §2

P. mirabilis GN 4359 = assay: as above; assay type: cell-based, Proteus mirabilis; settings: TSA, inoculum 10^7 /ml
Excerpt: as §1, §2

| Structure (SMILES) | minimal inhibitory concentration (M.I.C.) (E. coli 0-111) | minimal inhibitory concentration (M.I.C.) (E. cloacae TN 1282) | minimal inhibitory concentration (M.I.C.) (S. aureus 209P) | minimal inhibitory concentration (M.I.C.) (S. aureus 1840) | minimal inhibitory concentration (M.I.C.) (C. freundii GN 99) | minimal inhibitory concentration (M.I.C.) (C. freundii GN 1706) | minimal inhibitory concentration (M.I.C.) (E. coli T-7) | minimal inhibitory concentration (M.I.C.) (E. coli NIHJ JC-2) | minimal inhibitory concentration (M.I.C.) (P. rettgeri GN4733) | minimal inhibitory concentration (M.I.C.) (P. rettgeri TN 338) | minimal inhibitory concentration (M.I.C.) (P. morganii IFO 3168) | minimal inhibitory concentration (M.I.C.) (S. marcescens IFO 12648) | minimal inhibitory concentration (M.I.C.) (S. marcescens TN 24) | minimal inhibitory concentration (M.I.C.) (P. vulgaris IFO 3988) | minimal inhibitory concentration (M.I.C.) (P. vulgaris GN 4413) | ED50 (Escherichia coli 0-111) | minimal inhibitory concentration (M.I.C.) (K. pneumoniae GN 3835) | minimal inhibitory concentration (M.I.C.) (K. pneumoniae DT) | minimal inhibitory concentration (M.I.C.) (P. mirabilis GN 4359) |
| --- | --- | --- | --- | --- | --- | --- | --- | --- | --- | --- | --- | --- | --- | --- | --- | --- | --- | --- | --- |
| O=C(Cc1cccs1)N[C@@H]1C(=O)N2C(C(=O)[O-])=C(C[n+]3ccccc3)CS[C@H]12 [Cephaloridine, 7-(2-thienylacetamido)-3-(1-pyridyl)methyl-3-cephem-4-carboxylic acid betaine, reference compound] | 1.56 | > 100 | 0.05 | 0.39 | 50 | > 100 | > 100 | 3.13 | > 100 | 1.56 | > 100 | > 100 | > 100 | 6.25 | > 100 | 2 mg/kg | 12.5 | 1.56 | 6.25 |
| CCNC(=O)O/N=C(\C(=O)NC1C(=O)N2C(C(=O)O)=C(CSc3nnc(C)s3)CSC12)c1csc(=N)[nH]1 (stereo not shown) [Example II - 10] | 0.2 | 3.13 | 0.78 | 1.56 | 0.39 | 0.78 | 3.13 | 0.78 | 0.78 | ≤ 0.05 | 0.39 | 3.13 | 1.56 | 0.39 | 12.5 |  | 0.78 | 0.2 | 0.78 |
| CC1=C(C(=O)O)N2C(=O)C(NC(=O)/C(=N\OC(=O)NC(C)C)c3csc(=N)[nH]3)C2SC1 (stereo not shown) [Example II - 19] | 3.13 | 100 | 25 | 25 | 12.5 | 12.5 | 25 | 6.25 | 0.39 | 0.1 | 50 | 100 | > 100 | 12.5 | 50 |  | 6.25 | 3.13 | 3.13 |
| CCNC(=O)O/N=C(\C(=O)NC1C(=O)N2C(C(=O)O)=C(CSc3nnnn3C)CSC12)c1csc(=N)[nH]1 (stereo not shown) [Example II - 9] | 0.05 | 6.25 | 1.56 | 3.13 | 0.2 | 0.78 | 3.13 | 0.39 | 0.2 | ≤ 0.012 | 1.56 | 3.13 | 3.13 | 0.2 | 25 |  | 0.78 | 0.1 | 0.39 |
| CCCNC(=O)O/N=C(\C(=O)NC1C(=O)N2C(C(=O)O)=C(C)CSC12)c1csc(=N)[nH]1 (stereo not shown) [Example II - 15] | 3.13 | > 100 | 12.5 | 12.5 | 12.5 | 12.5 | 25 | 6.25 | 0.39 | 0.1 | 50 | > 100 | > 100 | 12.5 | 50 |  | 6.25 | 3.13 | 3.13 |
| CCNC(=O)O/N=C(\C(=O)NC1C(=O)N2C(C(=O)O)=C(COC(C)=O)CSC12)c1csc(=N)[nH]1 (stereo not shown) [Example II - 7] | 0.024 | 12.5 | 1.56 | 3.13 | 0.39 | 0.78 | 1.56 | 0.39 | 0.1 | ≤ 0.012 | 1.56 | 6.25 | 6.25 | 0.2 | 6.25 |  | 0.39 | 0.05 | 0.1 |
| CCCCNC(=O)O/N=C(\C(=O)NC1C(=O)N2C(C(=O)O)=C(CSc3nnnn3C)CSC12)c1csc(=N)[nH]1 (stereo not shown) [Example II - 22] | 0.024 | 12.5 | 0.78 | 3.13 | 0.2 | 0.78 | 6.25 | 0.39 | 0.1 | ≤ 0.012 | 0.78 | 6.25 | 5.13 | 0.1 | 12.5 |  | 0.78 | 0.1 | 0.39 |
| CCNC(=O)O/N=C(\C(=O)NC1C(=O)N2C(C(=O)O)=C(COC(N)=O)CSC12)c1csc(=N)[nH]1 (stereo not shown) [Example II - 8] | 0.024 | 12.5 | 3.13 | 3.13 | 0.1 | 0.39 | 1.56 | 0.2 | 0.05 | ≤ 0.012 | 3.13 | 6.25 | 6.25 | 0.1 | 100 |  | 0.2 | 0.05 | 0.1 |
